# Laboratory results from patent publication US20230257700A1, “FUNCTIONAL HUMAN CORNEAL ENDOTHELIAL CELLS AND APPLICATION THEREOF” (KYOTO PREFECTURAL PUBLIC UNIVERSITY CORPORATION, priority 2020, published 2023).
# How the values were obtained:
# [1] = test system: miR184; assay: intracellular miR184 expression by qRT-PCR; assay type: cell-based, human; details: with/without EGF, with/without Y27632
# Description: (§1) Y27632 was used as a ROCK inhibitor.
# (§2) Culture conditions conform to Examples 1 and 2.
# (§3) The results of miR184, miR34, miR378, and miR146 gene expression variations in the presence or absence of EGF and in the presence or absence of Y by qRT-PCR are shown in FIGS. 17 and 18.
# [2] = test system: cultured human corneal endothelial cells; assay: FACS cell surface CD antigens and phase-contrast morphology of cultured HCEC (standard cell ratio); assay type: cell-based
# Description: Culture with 0+Y, SB2, EGF, Asc (ascorbic acid) ↓ P1 Culture with +Y, SB2, EGF, Asc ↓ P2 Culture in 4 ways with EGF(−), 0.5 ng/mL, 1 ng/mL, 5 ng/mL (+Y, SB2, Asc) ↓ Passage from each condition in P2 P3 Culture in 4 ways with EGF(−), 0.5 ng/mL, 1 ng/mL, 5 ng/mL (+Y, SB2, Asc) ↓ Passage from each condition in P3 P4 Culture in 4 ways with EGF(−), 0.5 ng/mL, 1 ng/mL, 5 ng/mL (+Y, SB2, Asc) *Trypsin (TrypLE, ThermoFisher) concentration ×10 at the time of detachment, seeding cell number ECD800 (In the above, P indicates the number of passages.)
# P0 Culture two eyes collectively in 2 ways with EGF(−), 0.5 ng/mL (+Y, SB2, Asc) ↓ Passage from each condition in P0 P1 Culture in two ways with EGF(−), 0.5 ng/mL (+Y, SB2, Asc) ↓ Passage from each condition in P1 P2 Culture in two ways with EGF(−), 0.5 ng/mL (+Y, SB2, Asc) TrypLE concentration ×10 at the time of detachment, at seeding ECD800
# (§4) As to culture conditions, the Y addition timing is examined at P1 and P2 in #190719, and the Y addition timing is examined at P1 in #190802.
# (§5) Using P4 of #190719, the culture supernatant was collected at 1 to 5 w to examine the difference in accordance with the presence or absence of the ROCK inhibitor. Donor information was as follows: #190719S/D, AEB-301, OSCN/ODCN, ECD=3448/3289, COD: Bleomycin Lung Toxicity 2/2 ChemoTreatments, D-P=11:28, D-C=8D.
# For FACS analysis, 16×10^4 cells (one type of antibody+negative control) were dispensed into Proteosave tubes and the rest were passaged. FACS required 8×10^4 cells per antibody type. Passages were seeded at an Endothelial Cell Density (ECD: cells/mm^2) of 400 (191001 time point) (24-well: 7.6×10^4 cells, 12-well: 15.2×10^4 cells, 6-well: 38×10^4 cells, T-25: 100×10^4 cells).
# The FACS was started up, and an antibody solution (hereinafter light-shielded, on ice) was prepared as follows. antigen fluorescent dye Volume (μL)×sample type plus something extra (μL)
# The cell suspension was centrifuged at 250×g (1,800 rpm) for 2 minutes at 4° C., the supernatant was removed using P-200, the concentration was adjusted to 4×10^6 cells/mL and suspended in FACS Buffer (+NaN3). When the suspension was less than 30 μL, it was suspended in 30 μL and 20 μL was used for the reaction and 10 μL for NC.
# Twenty μL of the antibody solution and 20 μL of the suspension were mixed well by pipetting, and the tube was wrapped in aluminum to shield from light and rotated at 4° C. for 2 hours (up to 4 hours maximum) on a rotator. Centrifugation was performed at 250×g (1,800 rpm) for 2 minutes at 4° C., the supernatant was discarded, followed by washing with 100 μL of FACS Buffer (+NaN3). Centrifugation was performed at 250×g (1,800 rpm) for 2 minutes at 4° C., the supernatant was discarded, followed by suspending in 350 μL of FACS buffer (−NaN3), and transferring through a cell strainer to a 5-mL tube. NCs were suspended in FACS Buffer (−NaN3) to a total of 350 μL of the rest of the initial suspension, and transferred to a 5-mL tube through a cell strainer. During the FACS measurement, the sample was kept light-shielded and on ice, the FACS laser value and target cell range were determined, and a file was created (to follow: Open Book→Open Syringe→Green→Cytometer tab: Laser→Area scaling for HCEC label: FSC 0.5/Blue 0.75/Red 0.80). The NC was set to SIT and allowed to run briefly (Flow rate: set to medium, Acquire data 5 seconds→Remove sample from SIT and put on ice) to check the fluorescence parameter graph and target cell range. […]
# [3] = test system: mitochondrial respiration (OXPHOS) of HCEC; assay: mitochondrial respiratory capacity of cHCEC; assay type: cell-based, human; details: HCEC passages 2-5
# Description: As used herein, “mitochondria dependent oxidative phosphorylation” is also called “mitochondria OXPHOS” and refers to a reaction of oxidative phosphorylation that depends on respiratory activity. As to the reaction associated with “mitochondria OXPHOS”, a extracellular flux analyzer, which analyzes the state of intracellular metabolism, can measure the oxygen consumption rate (OCR), which is an index of OXPHOS activity, the extracellular acidification rate (ECAR), which is an index of glycolytic activity.
# Corneal endothelial cells (HCEC) were obtained from donor corneas provided by SightLife (Seattle, Wash., USA), and the HCEC were cultured according to a published protocol (Toda M, Ueno M, et al. Invest Ophthalmol Vis Sci. 2017; 58:2011) with some modifications. HCEC of passages 2-5 were used for all experiments. SPs containing CST were passaged at low cell density. The SPs of cHCEC were identified by cell surface markers (CD24, 44, 105, 166) using phase-contrast microscopy images and flow cytometry.
# [4] = test system: miR34a-5p; assay: intracellular miR34a-5p expression by qRT-PCR; assay type: cell-based, human; details: with/without EGF, with/without Y27632
# Description: as §1, §2, §3
# [5] = test system: cultured human corneal endothelial cells CT09; assay: effects of additives, lot CT09 P5 (photographs, FACS, ELISA); assay type: cell-based; details: CT09 P5, conditions 1 to 5, Day 34 FACS, PDGF-bb and IL-8 1st to 5th week
# Description: (§6) Lot CT09 P5 was used to assay the effects of additives to evaluate the product in a SB2-new culture method. First, using CT09 P4 (remaining cells for FBS lot assay), the culture supernatant was collected the day before the passage (Day 42), and then the CT09 P5 was passaged with ECD400 (181219), followed by culturing in Nancy medium (FBS #1652794, containing ascorbic acid) under conditions 1 to 5 shown in FIG. 23 (2 wells for each 6-well plate). From the 1st week to the 5th week, the culture supernatant was collected, one well was subjected to FACS measurement on Day 34 (190122), and the culture supernatant was measured for IL-8 and PDGF-bb by ELISA.
# [6] = test system: cultured endothelial cells; assay: measurement of metabolites in culture supernatant (CE-TOFMS, CE-MS/MS); assay type: cell-based, human
# Description: In this Example, differences between the metabolite properties of functional human corneal endothelial cells and the metabolite properties of non-intended cells were confirmed.
# For measurement of metabolites in culture supernatant (CS), an 80 μL Milli-Q (Merck1 KGaA, Darmstadt, Germany) containing 20 μL of CS and internal standard solution 1 (H3304-1002; Human Metabolome Technologies, Inc., Yamagata, Japan), was thoroughly mixed. Cationic compounds were measured by CE time-of-flight mass spectrometry (CE-TOFMS) in positive mode, and anionic compounds were measured by CE tandem MS (CE-MS/MS) in positive and negative modes. Hierarchical cluster analysis (HCA) was performed using the proprietary software “PeakStat”. Differences in values were analyzed statistically using Student's t-test or one-way analysis of variance (ANOVA) with Bonferroni's post hoc test (GraphPadPrism 6.0, GraphPad software). A p-value of <0.05 was considered statistically significant.
# The effect of adding a ROCK inhibitor was determined according to Example 3.
# [7] = test system: IL-6, IL-8 and MIP-1b; assay: cytokine measurement (BioPlex) in culture supernatant; assay type: cell-based, human; details: #190318
# [8] = test system: IL-8; assay: ELISA IL-8 in culture supernatant; assay type: cell-based, human
# Description: as §6, §4, §5
# [9] = test system: PDGF-bb; assay: ELISA PDGF-bb in culture supernatant; assay type: cell-based, human; details: for PDGF-bb in culture supernatant (weekly): #190719 P1 and P2, #190318
# Description: as §6, §4, §5
# [10] = test system: human corneal endothelial cells (donor AEM-510); assay: adhesion enhancement at P0 with or without Y addition; assay type: cell-based
# Description: Next, ROCK inhibitors were tested for adhesion enhancement. In order to investigate whether the enhancement of adhesion by the ROCK inhibitor is related to standard cell manufacture, cells cultured under the following conditions were compared and verified at P0 with or without Y addition.
# AEM-510 (person), ECD ODCN: 3058, and OSCN: 3058 were used, which were stored at 4° C. on January 30th, corneal treatment was performed on January 31st at 10:00, OD collagenase treatment was started at 10:45, and OS collagenase treatment was started at 11:05. Thereafter, seeding was started at 14:45 and cultured with Y−, A (ascorbic acid)+for OD and Y+, A+ for OS. At 10:00 on February 4, the medium was replaced, and both eyes: Y+, A+ were photographed (phase contrast ×4, ×10).
# [11] = #190719 P4, ROCK inhibitor added at the start of the culture for 3 days
# [12] = #190719 P1 and P2, ROCK inhibitor added 10 days after the start of culture
molecule,measurement,setting,value
"EGF: epidermal growth factor, a type of cell growth factor",miR184 expression level,[1],increases with no EGF addition than with EGF addition
same,ratio of corneal endothelial cells of the present disclosure (FACS),"[2]; EGF (−) or 0.5 ng/mL from primary culture, P0 to P2, donor #214",increases when EGF is not added
same,cell shape under microscopy and cell surface CD antigen trait,"[2]; EGF (−), 0.5, 1, 5 ng/mL, passages P2 to P4, donor #202",no addition of EGF was desirable at any passage from P2 to P4
same,standard cell ratio,"[2]; EGF addition, HCEC passages 2-5",lowers the standard cell ratio
same,mitochondrial respiratory capacity and oxidative phosphorylation (OXPHOS),[3],reduces mitochondrial respiratory capacity and oxidative phosphorylation (OXPHOS)
same,miR34a-5p expression level,[4],increases with no EGF addition than with EGF addition
same,desirable additive condition (overall effects of the additives),[5],no addition of EGF
same,Lactic Acid and L/P (lactic acid/pyruvic acid) ratio; anaerobic glycolytic activity,[6],non-intended cell profile with high anaerobic glycolytic activity due to the addition of EGF
same,metabolite profile of cultured endothelial cells,[6]; EGF added,showed a non-intended cell profile by adding EGF
same,"amount of branched chain amino acids (Ile, Leu) produced",[6]; amount of EGF added varied,decreased when the amount of EGF added was reduced
C[S+]([O-])c1ccc(-c2nc(-c3ccncc3)c(-c3ccc(F)cc3)[nH]2)cc1 (stereo not drawn) [SB203580],"IL-6, IL-8 and MIP-1b in culture supernatant (BioPlex)",[7],dependent on the p38 MAPK inhibitor
same,IL-8 in culture supernatant (weekly),[8]; #190318,varies almost depending on the presence or absence of SB2
same,IL-8 in culture supernatant,[8]; #190802,decreased dependently on a p38 MAPK inhibitor
same,desirable additive condition (overall effects of the additives),[5],no addition of SB2 or the addition thereof only at the final stage of culture
same,PDGF-bb in culture supernatant (for each item),"[9]; #190318, SB2 not added",high PDGF levels at 3 w
same,PDGF-bb in culture supernatant (weekly),[9],little relation to the presence or absence of SB203580
"C[C@@H](N)[C@H]1CC[C@H](C(=O)Nc2ccncc2)CC1.Cl.Cl.O (relative stereo) [Y27632, (R)-(+)-trans-(4-pyridyl)-4-(1-aminoethyl)-cyclohexanecarboxamide dehydrochloride monohydrate]",miR184 expression level,[1],increases with the addition of the ROCK inhibitor
same,mature standard cells by FACS,[2]; [11],no mature standard cells were detected by FACS
same,ratio of standard cells (FACS),"[2]; ROCK inhibitor added on the 10th day after the start of culture, #190719, #190802, #190318",higher ratio of standard cells in all of the three experiments
same,adhesion to the incubator after seeding,"[10]; P0, Y+ vs Y−",promoted the adhesion to the incubator after seeding the cells
same,difference between cultures on the 14th day,[10]; Y27632 added for the first time after the 4th day vs from seeding,no difference was observed on the 14th day of culture
same,miR34a-5p expression level,[4],increases with the addition of the ROCK inhibitor
same,IL-8 in culture supernatant,[8]; [12],lowest from differentiation to the maturation stage
same,IL-8 in culture supernatant,[8]; [11],higher than the standard
same,desirable additive condition (overall effects of the additives),[5],addition of Y from Day 10
same,PDGF-bb in culture supernatant (weekly),[9],high PDGF levels and slightly low levels in the P1 growth phase
same,PDGF-bb in culture supernatant (for each item),[9]; [12],increased from differentiation to maturation
same,PDGF-bb in culture supernatant,[9]; [11],at a low level and does not satisfy the standard values
same,PDGF-bb in culture supernatant,[9]; #190802,increased dependently on differentiation and induction by a ROCK inhibitor
NC(=O)c1ccc(-c2nc(-c3ccc4c(c3)OCO4)c(-c3ccccn3)[nH]2)cc1 [SB4],desirable additive condition (overall effects of the additives),[5],addition of SB4
